Reference: patent US7442699B2, “Anilinopyrimidine derivatives as IKK inhibitors and compositions and methods related thereto” (Signal Pharmaceuticals, LLC, priority 2000, dated 2008)
Where a name gives a salt, the structure may show the parent alone. Read-outs that look alike come from different tables or passages of the source.

Molecular target: T1, IKK-2 (Homo sapiens, UniProt O14920, S177E/S181E)
T1 construct: His6
T1 sequence (O14920 1-756 S177E/S181E): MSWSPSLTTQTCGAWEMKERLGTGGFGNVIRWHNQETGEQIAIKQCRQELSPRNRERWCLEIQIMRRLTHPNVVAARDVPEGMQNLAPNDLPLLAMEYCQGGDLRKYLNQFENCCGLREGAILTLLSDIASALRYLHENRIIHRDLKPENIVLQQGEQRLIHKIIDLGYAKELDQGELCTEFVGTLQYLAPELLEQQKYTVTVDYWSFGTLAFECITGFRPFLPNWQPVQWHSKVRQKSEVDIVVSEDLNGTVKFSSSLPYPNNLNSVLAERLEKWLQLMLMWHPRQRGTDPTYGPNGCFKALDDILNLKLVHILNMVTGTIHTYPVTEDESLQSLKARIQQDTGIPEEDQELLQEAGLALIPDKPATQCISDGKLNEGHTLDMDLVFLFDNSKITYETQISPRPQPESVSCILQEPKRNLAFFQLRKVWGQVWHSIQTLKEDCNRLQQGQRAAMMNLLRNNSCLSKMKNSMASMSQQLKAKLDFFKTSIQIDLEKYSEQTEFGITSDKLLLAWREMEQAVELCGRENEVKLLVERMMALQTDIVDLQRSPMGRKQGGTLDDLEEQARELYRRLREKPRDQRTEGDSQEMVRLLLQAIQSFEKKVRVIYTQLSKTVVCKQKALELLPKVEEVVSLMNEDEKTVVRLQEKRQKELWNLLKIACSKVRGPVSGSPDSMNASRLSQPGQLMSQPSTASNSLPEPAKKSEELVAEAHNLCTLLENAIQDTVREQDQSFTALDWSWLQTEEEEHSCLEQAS
Assay: IKK-2 Enzyme Assay
Format: biochemical
Settings: read-out: IC50 value in the IKK-2 Enzyme Assay
Description: The mixture is preincubated for 15 minutes at room temperature. […] After 30 minutes the precipitate is harvested onto a filter plate to which 50 μl of scintillation fluid is added and then quantified by a scintillation counter.

[1] = more preferred compounds, 500 nM or less
[2] = preferred compounds, 1 μM or less

Row | IC50 [1] | IC50 [2] | Compound
1 | ≤ 500 nM | ≤ 1000 nM | C[C@@H]1CN(C(=O)c2ccc(Nc3nccc(-c4ccc(Cl)cc4)n3)cc2)C[C@H](C)N1 [Compound 17-190]
2 | ≤ 500 nM | ≤ 1000 nM | O=C(c1ccc(Nc2nccc(-c3ccc(Cl)cc3)n2)cc1)N1CCN(CCO)CC1 [Compound 17-215]
3 | ≤ 500 nM | ≤ 1000 nM | O=C(c1ccc(Nc2nccc(-c3ccc(Cl)cc3)n2)cc1)N1CCNCC1 [Compound 18, 4-{[4-(4-chlorophenyl)pyrimidin-2-yl]amino}benzoic acid piperazine amide hydrochloride]
4 | ≤ 500 nM | ≤ 1000 nM | CC(=O)NC1CCN(C(=O)c2ccc(Nc3nccc(-c4ccc(Cl)cc4)n3)cc2)CC1 [Compound 20-1, N-{1-[(4-{[4-(4-Chlorophenyl)pyrimidin-2-yl]amino}phenyl)carbonyl]-4-piperidyl}acetamide]
5 | ≤ 500 nM | ≤ 1000 nM | Cc1noc(C)c1C(=O)NC1CCN(C(=O)c2ccc(Nc3nccc(-c4ccc(Cl)cc4)n3)cc2)CC1 [Compound 20-2]
6 | ≤ 500 nM | ≤ 1000 nM | O=C(NC1CCN(C(=O)c2ccc(Nc3nccc(-c4ccc(Cl)cc4)n3)cc2)CC1)c1cccs1 [Compound 20-3]
7 | ≤ 500 nM | ≤ 1000 nM | O=C(NC1CCN(C(=O)c2ccc(Nc3nccc(-c4ccc(Cl)cc4)n3)cc2)CC1)N1CCOCC1 [Compound 20-4]
8 | ≤ 500 nM | ≤ 1000 nM | CN(C)C(=O)NC1CCN(C(=O)c2ccc(Nc3nccc(-c4ccc(Cl)cc4)n3)cc2)CC1 [Compound 20-5]
9 | ≤ 500 nM | ≤ 1000 nM | COCC(=O)NC1CCN(C(=O)c2ccc(Nc3nccc(-c4ccc(Cl)cc4)n3)cc2)CC1 [Compound 20-6]
